≈ marks a conversion by molar mass, not a printed value. Counter-ions that a name gives are not always drawn. Like-named read-outs stand apart in the source and are kept apart here.

The term MRT denotes the average time that molecules of a dose stay in the body. One may read the Solubility as the concentration that dissolves in the medium under given conditions. What is called solubility is the concentration that dissolves in the medium under given conditions. Low values mean little dissolved substance, high ones much dissolved substance.

A short description of data set [1]: Comparison of solid state stability (related substances by HPLC). Particulars: for Solid state stability, total related substances (in words): stood in high temperature, high humidity, accelerated, illumination and long-term conditions for 10 d. The class given is physicochemical. How it is done:
Method for Detecting Related Substances by HPLC [table] The crystalline form 1 of Fingolimod 1-hydroxy-2-naphthoate prepared in Example 14, the crystalline form A of Fingolimod embonate prepared in Example 3, and Fingolimod hydrochloride were stood in a high temperature (60° C.)condition, a high humidity (25° C./90% RH) condition, an accelerated (40° C./75% RH) condition, an illumination (1.2× 10^6 Lux·hr) condition, and a long-term (25° C./60% RH) condition, and samples were taken on day 0, day 5, and day 10 for related substance detection by HPLC.

Data set [2] in a line: Pharmacokinetic study in male SD rats (plasma Fingolimod by LC-MS/MS).
Experimental: (§1) Six male SD rats were divided into two groups. […] In the whole study, the animals in the intramuscular injection group were given ad libitum access to food and water, and those in the oral group were fasted overnight before administration and given access to food at 4 h post-dose.
(§2) Collection of plasma sample: about 150 μL of blood was collected from the jugular vein (whole blood was centrifuged within 30 min to isolate plasma) and placed in a tube containing anticoagulant EDTA-K2, and after treatment, plasma was stored in a freezer at −70° C. before use.
(§3) Pretreatment of plasma sample: to 30 μL of plasma sample, 200 μL of internal standard solution (40 ng/mL Glipizide acetonitrile solution) was added; the mixture was vortexed for 1 min and centrifuged at 5800 rpm at 4° C. for 10 min; 100 μL of supernatant was transferred to a new plate 5 μL of the solution was taken for LC-MS/MS.
Data set [3] can be described thus: Comparison of solubility (shaken at 37° C. for 24 h, HPLC). The class given is physicochemical. Conditions: for Solubility: 24 h; for solubility at 24 h: 37 °C, thermodynamic from solid. As for the experimental part:
The crystalline form 1 of Fingolimod 1-hydroxy-2-naphthoate prepared in Example 14, the crystalline form B of Fingolimod embonate prepared in Example 2, Fingolimod hydrochloride and the Fingolimod free base prepared in Example 12 were added to corresponding media described below. The mixtures were shaken at 37° C. for 24 h and filtered through 0.45 μm aqueous-phase filter membranes. The filtrates were collected for determination of solubility by high-performance liquid chromatography. The corresponding media were acetate buffer solutions at pH 3 and pH 5 and phosphate buffer solutions at pH 7 and pH 9, and the water was ultrapure water.

A further data set in a line: in vivo. Particulars: male, SD, rat, po, 0.1 mg/kg.
For data set [4] the following is noted: male, SD, rat, in vivo, po, 0.1 mg/kg.
Experimental: as §1, §2, §3
The mark [5] stands for this setting: Accelerated (40° C./75% RH), Day 5.
The mark [6] stands for this setting: Accelerated (40° C./75% RH), Day 10.
The mark [7] stands for this setting: Day 0 (baseline, all conditions).
Where [8] appears, read: High humidity (25° C./90% RH), Day 5.
[9] abbreviates: High humidity (25° C./90% RH), Day 10.
Where [10] appears, read: High temperature (60° C.), Day 5.
[11] abbreviates: High temperature (60° C.), Day 10.
The mark [12] stands for this setting: Illumination (1.2× 10^6 Lux·hr), Day 5.
The mark [13] stands for this setting: Illumination (1.2× 10^6 Lux·hr), Day 10.
Where [14] appears, read: Long-term (25° C./60% RH), Day 5.
Setting [15] is: Long-term (25° C./60% RH), Day 10.
The mark [16] stands for this setting: injection group, intramuscular 3 mg/kg.

Experimental for in vivo: as §1, §2, §3

Regarding Fingolimod 1-hydroxy-2-naphthoate, the “Changes in total related substances relative to day 0” value in data set [1] (setting [5]) is recorded as −0.09%; in data set [1] (setting [6]), −0.07%; in data set [1] (setting [7]), 0%; in data set [1] (setting [8]), −0.04%; in data set [1] (setting [9]) it was −0.07%; in data set [1] (setting [10]), −0.05%. In addition, the “Changes in total related substances relative to day 0” value is on record as −0.16% in data set [1] (setting [11]); −0.05% in data set [1] (setting [12]); 0.02% in data set [1] (setting [13]); −0.17% in data set [1] (setting [14]); −0.15% in data set [1] (setting [15]). In data set [1], the “Solid state stability, total related substances (in words)” value is given as “remained substantially unchanged”. The “Cmax relative to dose (in words)” value in data set [2] (injection group 3 mg/kg versus oral group 0.1 mg/kg) is recorded as “did not increase in proportion to the dose”. The molecule also yielded an MRT in data set [2] (setting [16]) of 288 h. The “Time for plasma concentration to reach a relatively steady state” value in data set [2] (setting [16]) was ≤ 1 days. For the same molecule, in data set [2] (setting [16]), the “Time plasma concentration was maintained above 0.3 ng/ml” value is “at least 15 days”. For the same molecule, the “Time post-dose at which plasma concentration reached the peak value” in data set [2] (injection group, intramuscular 3 mg/kg (Example 18 sample)) worked out at 3 h. Besides, the Solubility in data set [3] (Water (ultrapure), 37° C.) came to 0.00546 mg/mL; in data set [3] (pH 3 acetate buffer, 37° C.) it was 0.02007 mg/mL; in data set [3] (pH 5 acetate buffer, 37° C.), 0.00917 mg/mL; in data set [3] (pH 7 phosphate buffer, 37° C.), 0.00054 mg/mL; in data set [3] (pH 9 phosphate buffer, 37° C.) it was 0.00058 mg/mL. Further, the “Solubility in water relative to the solubility of Fingolimod free base” value in data set [3] (water) is “one fourth to one fifth”. Moreover, in data set [3] (water), the “Solubility in water relative to the solubility of Fingolimod hydrochloride” value is “one thousandth to one twenty-six hundredth”.
Molecule `CCCCCCCCc1ccc(CCC(N)(CO)CO)cc1` [Fingolimod] yielded an MRT in the data set “in vivo” of 12 h. In addition, in data set [4], the “Time post-dose at which plasma concentration reached the peak value” was 12 h.
Regarding `CCCCCCCCc1ccc(CCC(N)(CO)CO)cc1` [Fingolimod hydrochloride, reference compound], the “Changes in total related substances relative to day 0” value in data set [1] (setting [5]) is on record as −0.07%; in data set [1] (setting [6]), 0.01%; in data set [1] (setting [7]), 0%; in data set [1] (setting [8]), −0.07%; in data set [1] (setting [9]), −0.07%; in data set [1] (setting [10]) it was 0.03%. For the same molecule, the “Changes in total related substances relative to day 0” value in data set [1] (setting [11]) is given as 0.02%; in data set [1] (setting [12]), −0.04%; in data set [1] (setting [13]), −0.03%; in data set [1] (setting [14]), 0.04%; in data set [1] (setting [15]) it was −0.12%. In data set [3], the “Behaviour of the salt in the media (in words)” value is “dissociated into the Fingolimod free base”. The solubility at 24 h in data set [3] (pH 3, aqueous buffer) is > 33.5 mg/mL; in data set [3] (pH 5, aqueous buffer), > 15.6 mg/mL; in data set [3] (pH 7, aqueous buffer), < 0.00015 mg/mL; in data set [3] (pH 9, aqueous buffer), < 0.00015 mg/mL; in data set [3] (water), ~14 mg/mL. In addition, the Solubility in data set [3] is >13.9 mg/mL.
Consider “Fingolimod embonate [listing 1 of 2 here]”, for which the Solubility in data set [3] (Water (ultrapure), 37° C.) was determined as 0.0002 mg/mL; in data set [3] (pH 3 acetate buffer, 37° C.) it was 0.03618 mg/mL; in data set [3] (pH 5 acetate buffer, 37° C.), 0.00175 mg/mL; in data set [3] (pH 7 phosphate buffer, 37° C.), 0.02126 mg/mL; in data set [3] (pH 9 phosphate buffer, 37° C.) it was 0.0058 mg/mL.
With `CCCCCCCCc1ccc(CCC(N)(CO)CO)cc1` [Fingolimod free base, reference compound], the Solubility entry was “about 23 μg/mL” in data set [3] (Water (ultrapure), 37° C.); 5.56136 mg/mL (≈ 18.1 mM) in data set [3] (pH 3 acetate buffer, 37° C.); 0.47353 mg/mL (≈ 1.54 mM) in data set [3] (pH 5 acetate buffer, 37° C.).
For “Fingolimod embonate [listing 2 of 2 here]”, the “Changes in total related substances relative to day 0” value was 0% in data set [1] (setting [5]); −0.11% in data set [1] (setting [6]); 0% in data set [1] (setting [7]); 0.12% in data set [1] (setting [8]); 0.11% in data set [1] (setting [9]); −0.04% in data set [1] (setting [10]). Moreover, the “Changes in total related substances relative to day 0” value in data set [1] (setting [11]) was −0.21%; in data set [1] (setting [12]) it was 0.2%; in data set [1] (setting [13]), 0.3%; in data set [1] (setting [14]), 0.08%; in data set [1] (setting [15]), −0.01%. Moreover, in data set [1], the “Solid state stability, total related substances (in words)” value is on record as “relatively stable in other conditions than the illumination condition where the impurities were slightly increased”.
